Measured values as given in patent US20160158317A1, “Antimicrobial Peptide Variants and Polynucleotides Encoding Same” (Adenium Biotech A/S, priority 2010, published 2016).
Where a SMILES comes first, the peptide text is derived from it. Bridges are numbered along the chain shown (N, C = ends).

Experiment: Determination of the protein binding (90% serum, 30 kDa filter, HPLC)
Format: in vitro ADME
Details: serum
Method: Protein binding assays were performed as follows. The purified peptides were mixed with 90% serum and centrifuged through a 30 kDa filter. The ultra-filtrate and the non filtrated serum samples were quantified by HPLC measurements and the protein binding was subsequently calculated.

Row | Compound | fraction unbound
1 | CC(C)[C@@H]1NC(=O)CNC(=O)[C@H](CC(N)=O)NC(=O)[C@H](CCCNC(=N)N)NC(=O)[C@H](Cc2ccc(O)cc2)NC(=O)[C@H](C(C)C)NC(=O)[C@@H]2CSSC[C@H](NC(=O)[C@H](C(C)C)NC(=O)[C@H](CCCNC(=N)N)NC1=O)C(=O)N[C@@H](Cc1c[nH]cn1)C(=O)N[C@@H](CCCNC(=N)N)C(=O)N[C@@H](CCCNC(=N)N)C(=O)N[C@H](C(=O)N[C@@H](Cc1c[nH]cn1)C(=O)O)CSSC[C@H](NC(=O)[C@H](Cc1ccccc1)NC(=O)CN)C(=O)N[C@@H](Cc1c[nH]c3ccccc13)C(=O)N[C@@H](CC(N)=O)C(=O)N[C@@H](C(C)C)C(=O)N2 [compound 282] (H-GFCWNVCVYRNGVRVCHRRCH-OH; disulfide 3-20, 7-16 (inferred); N-terminus and C-terminus assumed) | 0.18
2 | CC(C)[C@@H]1NC(=O)CNC(=O)[C@H](CC(N)=O)NC(=O)[C@H](CCCNC(=N)N)NC(=O)[C@H](Cc2ccc(O)cc2)NC(=O)[C@H](C(C)C)NC(=O)[C@@H]2CSSC[C@H](NC(=O)[C@H](C(C)C)NC(=O)[C@H](CCCNC(=N)N)NC1=O)C(=O)N[C@@H](Cc1c[nH]cn1)C(=O)N[C@@H](CCCNC(=N)N)C(=O)N[C@@H](CCCNC(=N)N)C(=O)N[C@H](C(=O)N[C@@H](CCCCN)C(=O)O)CSSC[C@H](NC(=O)[C@H](Cc1ccccc1)NC(=O)CN)C(=O)N[C@@H](Cc1c[nH]c3ccccc13)C(=O)N[C@@H](CC(N)=O)C(=O)N[C@@H](C(C)C)C(=O)N2 [compound 284] (H-GFCWNVCVYRNGVRVCHRRCK-OH; disulfide 3-20, 7-16 (inferred); N-terminus and C-terminus assumed) | 0.28
3 | CC(C)[C@@H]1NC(=O)CNC(=O)[C@H](CC(N)=O)NC(=O)[C@H](CCCNC(=N)N)NC(=O)[C@H](Cc2ccc(O)cc2)NC(=O)[C@H](C(C)C)NC(=O)[C@@H]2CSSC[C@H](NC(=O)[C@H](C(C)C)NC(=O)[C@H](CCCNC(=N)N)NC1=O)C(=O)N[C@@H](Cc1c[nH]cn1)C(=O)N[C@@H](CCCNC(=N)N)C(=O)N[C@@H](CCCNC(=N)N)C(=O)N[C@H](C(=O)N[C@@H](CCCNC(=N)N)C(=O)O)CSSC[C@H](NC(=O)[C@H](Cc1ccccc1)NC(=O)CN)C(=O)N[C@@H](Cc1c[nH]c3ccccc13)C(=O)N[C@@H](CC(N)=O)C(=O)N[C@@H](C(C)C)C(=O)N2 [compound 289] (H-GFCWNVCVYRNGVRVCHRRCR-OH; disulfide 3-20, 7-16 (inferred); N-terminus and C-terminus assumed) | 0.17
4 | CC(C)[C@@H]1NC(=O)CNC(=O)[C@H](CC(N)=O)NC(=O)[C@H](CCCNC(=N)N)NC(=O)[C@H](Cc2ccc(O)cc2)NC(=O)[C@H](C(C)C)NC(=O)[C@@H]2CSSC[C@H](NC(=O)[C@H](C(C)C)NC(=O)[C@H](CCCNC(=N)N)NC1=O)C(=O)N[C@@H](Cc1c[nH]cn1)C(=O)N[C@@H](CCCNC(=N)N)C(=O)N[C@@H](CCCNC(=N)N)C(=O)N[C@H](C(=O)N[C@@H](Cc1c[nH]c3ccccc13)C(=O)O)CSSC[C@H](NC(=O)[C@H](Cc1ccccc1)NC(=O)CN)C(=O)N[C@@H](Cc1c[nH]c3ccccc13)C(=O)N[C@@H](CC(N)=O)C(=O)N[C@@H](C(C)C)C(=O)N2 [compound 291] (H-GFCWNVCVYRNGVRVCHRRCW-OH; disulfide 3-20, 7-16 (inferred); N-terminus and C-terminus assumed) | 0.01
5 | CC(C)[C@@H]1NC(=O)CNC(=O)[C@H](CC(N)=O)NC(=O)[C@H](CCCNC(=N)N)NC(=O)[C@H](C)NC(=O)[C@H](C(C)C)NC(=O)[C@@H]2CSSC[C@H](NC(=O)[C@H](C(C)C)NC(=O)[C@H](CCCNC(=N)N)NC1=O)C(=O)N[C@@H](Cc1c[nH]cn1)C(=O)N[C@@H](CCCNC(=N)N)C(=O)N[C@@H](CCCNC(=N)N)C(=O)N[C@H](C(=O)N[C@@H](CC(N)=O)C(=O)O)CSSC[C@H](NC(=O)[C@H](Cc1ccccc1)NC(=O)CN)C(=O)N[C@@H](Cc1c[nH]c3ccccc13)C(=O)N[C@@H](CC(N)=O)C(=O)N[C@@H](C(C)C)C(=O)N2 [compound 299] (H-GFCWNVCVARNGVRVCHRRCN-OH; disulfide 3-20, 7-16 (inferred); N-terminus and C-terminus assumed) | 0.26
6 | CC(C)[C@@H]1NC(=O)CNC(=O)[C@H](CC(N)=O)NC(=O)[C@H](CCCNC(=N)N)NC(=O)[C@H](Cc2c[nH]cn2)NC(=O)[C@H](C(C)C)NC(=O)[C@@H]2CSSC[C@H](NC(=O)[C@H](C(C)C)NC(=O)[C@H](CCCNC(=N)N)NC1=O)C(=O)N[C@@H](Cc1c[nH]cn1)C(=O)N[C@@H](CCCNC(=N)N)C(=O)N[C@@H](CCCNC(=N)N)C(=O)N[C@H](C(=O)N[C@@H](CC(N)=O)C(=O)O)CSSC[C@H](NC(=O)[C@H](Cc1ccccc1)NC(=O)CN)C(=O)N[C@@H](Cc1c[nH]c3ccccc13)C(=O)N[C@@H](CC(N)=O)C(=O)N[C@@H](C(C)C)C(=O)N2 [compound 303] (H-GFCWNVCVHRNGVRVCHRRCN-OH; disulfide 3-20, 7-16 (inferred); N-terminus and C-terminus assumed) | 0.57
7 | CC(C)[C@@H]1NC(=O)CNC(=O)[C@H](CC(N)=O)NC(=O)[C@H](CCCNC(=N)N)NC(=O)[C@H](CCCCN)NC(=O)[C@H](C(C)C)NC(=O)[C@@H]2CSSC[C@H](NC(=O)[C@H](C(C)C)NC(=O)[C@H](CCCNC(=N)N)NC1=O)C(=O)N[C@@H](Cc1c[nH]cn1)C(=O)N[C@@H](CCCNC(=N)N)C(=O)N[C@@H](CCCNC(=N)N)C(=O)N[C@H](C(=O)N[C@@H](CC(N)=O)C(=O)O)CSSC[C@H](NC(=O)[C@H](Cc1ccccc1)NC(=O)CN)C(=O)N[C@@H](Cc1c[nH]c3ccccc13)C(=O)N[C@@H](CC(N)=O)C(=O)N[C@@H](C(C)C)C(=O)N2 [compound 305] (H-GFCWNVCVKRNGVRVCHRRCN-OH; disulfide 3-20, 7-16 (inferred); N-terminus and C-terminus assumed) | 0.24
8 | CC(C)[C@@H]1NC(=O)CNC(=O)[C@H](CC(N)=O)NC(=O)[C@H](CCCNC(=N)N)NC(=O)[C@H](CCCNC(=N)N)NC(=O)[C@H](C(C)C)NC(=O)[C@@H]2CSSC[C@H](NC(=O)[C@H](C(C)C)NC(=O)[C@H](CCCNC(=N)N)NC1=O)C(=O)N[C@@H](Cc1c[nH]cn1)C(=O)N[C@@H](CCCNC(=N)N)C(=O)N[C@@H](CCCNC(=N)N)C(=O)N[C@H](C(=O)N[C@@H](CC(N)=O)C(=O)O)CSSC[C@H](NC(=O)[C@H](Cc1ccccc1)NC(=O)CN)C(=O)N[C@@H](Cc1c[nH]c3ccccc13)C(=O)N[C@@H](CC(N)=O)C(=O)N[C@@H](C(C)C)C(=O)N2 [compound 308] (H-GFCWNVCVRRNGVRVCHRRCN-OH; disulfide 3-20, 7-16 (inferred); N-terminus and C-terminus assumed) | 0.06
9 | CC(C)[C@@H]1NC(=O)[C@@H]2CSSC[C@H](NC(=O)[C@H](CCCCN)NC(=O)[C@H](CCCNC(=N)N)NC(=O)[C@H](C)NC(=O)CNC(=O)[C@H](CC(N)=O)NC(=O)[C@H](CCCNC(=N)N)NC(=O)[C@H](Cc3ccc(O)cc3)NC1=O)C(=O)N[C@@H](Cc1ccc(O)cc1)C(=O)N[C@@H](CCCNC(=N)N)C(=O)N[C@@H](CCCNC(=N)N)C(=O)N[C@H](C(=O)N[C@@H](CC(N)=O)C(=O)O)CSSC[C@H](NC(=O)[C@H](Cc1ccccc1)NC(=O)CN)C(=O)N[C@@H](Cc1c[nH]c3ccccc13)C(=O)N[C@@H](CCCNC(=N)N)C(=O)N[C@@H](C(C)C)C(=O)N2 [compound 313] (H-GFCWRVCVYRNGARKCYRRCN-OH; disulfide 3-20, 7-16 (inferred); N-terminus and C-terminus assumed) | 0.02
10 | CC(C)[C@@H]1NC(=O)CNC(=O)[C@H](CC(N)=O)NC(=O)[C@H](CCCNC(=N)N)NC(=O)[C@H](Cc2ccc(O)cc2)NC(=O)[C@H](C(C)C)NC(=O)[C@@H]2CSSC[C@H](NC(=O)[C@H](CCCCN)NC(=O)[C@H](CCCNC(=N)N)NC1=O)C(=O)N[C@@H](Cc1c[nH]cn1)C(=O)N[C@@H](CCCNC(=N)N)C(=O)N[C@@H](CCCNC(=N)N)C(=O)N[C@H](C(=O)N[C@@H](CC(N)=O)C(=O)O)CSSC[C@H](NC(=O)[C@H](Cc1ccccc1)NC(=O)CN)C(=O)N[C@@H](Cc1c[nH]c3ccccc13)C(=O)N[C@@H](CCCNC(=N)N)C(=O)N[C@@H](C(C)C)C(=O)N2 [compound 315] (H-GFCWRVCVYRNGVRKCHRRCN-OH; disulfide 3-20, 7-16 (inferred); N-terminus and C-terminus assumed) | 0.07
11 | CC(C)[C@@H]1NC(=O)CNC(=O)[C@H](CC(N)=O)NC(=O)[C@H](CCCNC(=N)N)NC(=O)[C@H](Cc2ccc(O)cc2)NC(=O)[C@H](C(C)C)NC(=O)[C@@H]2CSSC[C@H](NC(=O)[C@H](CO)NC(=O)[C@H](CCCNC(=N)N)NC1=O)C(=O)N[C@@H](Cc1c[nH]cn1)C(=O)N[C@@H](CCCNC(=N)N)C(=O)N[C@@H](CCCNC(=N)N)C(=O)N[C@H](C(=O)N[C@@H](CC(N)=O)C(=O)O)CSSC[C@H](NC(=O)[C@H](Cc1ccccc1)NC(=O)CN)C(=O)N[C@@H](Cc1c[nH]c3ccccc13)C(=O)N[C@@H](CCCNC(=N)N)C(=O)N[C@@H](C(C)C)C(=O)N2 [compound 316] (H-GFCWRVCVYRNGVRSCHRRCN-OH; disulfide 3-20, 7-16 (inferred); N-terminus and C-terminus assumed) | 0.1
12 | CC(C)[C@@H]1NC(=O)CNC(=O)[C@H](CC(N)=O)NC(=O)[C@H](CCCNC(=N)N)NC(=O)[C@H](Cc2ccc(O)cc2)NC(=O)[C@H](C(C)C)NC(=O)[C@@H]2CSSC[C@H](NC(=O)[C@H](C)NC(=O)[C@H](CCCNC(=N)N)NC1=O)C(=O)N[C@@H](Cc1ccc(O)cc1)C(=O)N[C@@H](CCCNC(=N)N)C(=O)N[C@@H](CCCNC(=N)N)C(=O)N[C@H](C(=O)N[C@@H](CC(N)=O)C(=O)O)CSSC[C@H](NC(=O)[C@H](Cc1ccccc1)NC(=O)CN)C(=O)N[C@@H](Cc1c[nH]c3ccccc13)C(=O)N[C@@H](CCCNC(=N)N)C(=O)N[C@@H](C)C(=O)N2 [compound 319] (H-GFCWRACVYRNGVRACYRRCN-OH; disulfide 3-20, 7-16 (inferred); N-terminus and C-terminus assumed) | 0.6
